Test: in vitro
Conditions: human, hela cells, % viability

Row | SMILES | viability at 28.5 h, 10 µM [%]
1 | OC(CN1CCC(O)(c2ccc(C(F)(F)F)cc2)CC1)c1ccccc1 (centres unmarked) [CBK286323] | 102
2 | CC(=O)Nc1cccc(-c2nc(-c3ccc(C#N)cc3)cnc2N)c1 [CBK113659] | 100
3 | Cc1ccc2ccccc2c1CN(/N=N/c1nonc1C)c1nonc1C [CBK262412] | 99.6
4 | OCCNc1nc(Nc2ccc(O)cc2)nc2ccccc12 [CBK266606C] | 97.3
5 | O=C(NCCN1CCOCC1)c1cc(-n2cnnc2)ccc1Cl [CBK268023] | 97.1
6 | Cn1ccnc1C1(O)CC2CCC(C1)N2C(=O)c1cccc(F)c1 (centres unmarked) [CBK284089] | 93.9
7 | O=C(NCc1cccnc1)N1CCN(CCc2ccccc2)CC1 [CBK158906] | 93.7
8 | COc1ccc(O)c(CN2CCC(N3CCCCC3)CC2)c1 [CBK261849] | 94.9
9 | Cc1cc(C(=O)O)c(NC(=O)c2cccc(Cl)c2)s1 [CBK126813] | 100
10 | CCC(O)CN1CCCC(c2nc3cc(C)ccc3[nH]2)C1 (centres unmarked) [CBK304854] | 88.8
11 | O=C(NCc1ccsc1)N1CCCN(Cc2ccc(Cl)cc2)CC1 [CBK305450] | 86.4
12 | NC(=O)c1ccc(-c2cncc(N3CCN(CCO)CC3)n2)cc1 [CBK065392] | 96.5
13 | Cc1cc(/C=C(/C#N)c2ccc(C(=O)O)cc2)c(C)n1-c1ccc(S(N)(=O)=O)cc1 [CBK268896] | 116
14 | COC(=O)CCc1ccc(S(=O)(=O)N2CCCN(Cc3ccc4c(c3)OCO4)CC2)cc1 [CBK063130] | 106
15 | CCOC(=O)n1c(=O)n2n(c1=O)CC=CC2 [CBK023102] | 93.9
16 | CCn1cc(-c2cncn2CCN(C)C2CCCC2)cn1 [CBK281551] | 90.7
17 | COc1ccccc1-c1cc(Nc2ccc(NS(=O)(=O)c3ccc(C)cc3)cc2)ncn1 [CBK037819] | 113
18 | Cc1ccc(C(C)C(=O)N2CCC(C(=O)c3cccnc3)CC2)cc1 (centres unmarked) [CBK283516] | 93.5
19 | CCN(Cc1ccco1)C(=O)NC1CCCc2c1cnn2CCO (centres unmarked) [CBK305767] | 101
20 | CN1CC(=O)N(c2ccc(Cl)cc2Cl)C1=O [CBK116319] | 93
21 | COc1ccc(/C=C/c2nc3ccccc3s2)cc1S(=O)(=O)N1CCOCC1 [CBK269373] | 89.9
22 | NC(=O)C1CCN(C(=O)CN2CCN(Cc3ccccc3)CC2)CC1 [CBK265971C] | 82.8
23 | CCOc1ccc(C(=O)Nc2ccc(-c3nc4ccccc4s3)cc2C)cc1[N+](=O)[O-] [CBK269005] | 90.5

Row | SMILES | viability at 28.5 h, 10 µM [%]
24 | CCOC(=O)NC(=O)Nc1cc2ccccc2c(Br)n1 [CBK063282] | 88.1
25 | Cc1ccc(Oc2ccc3c(c2)C(=O)N(CC(=O)O)C3=O)cc1 [CBK287126] | 91.4
26 | O=C(O)C(=N\Nc1ccccc1)/C(=N/Nc1ccccc1)C(=O)O [CBK278303N] | 100
27 | CCN(CC)CCN1C(=O)C(O)=C(C(=O)c2cc3ccccc3o2)C1c1ccccn1 (centres unmarked) [CBK266413] | 86.1
28 | O=C(CCSc1ccccc1)Nc1ccccc1C(=O)O [CBK264119] | 92.1
29 | CCOC(=O)c1c(-c2ccc(-c3ccccc3)cc2)csc1NC(=O)c1ccccc1C(=O)O [CBK296096] | 106
30 | COc1cc(CNCc2cnn(C)c2)c(O)c(C(C)(C)C)c1 [CBK304721] | 85.8
31 | O=C(O)CCNC(=O)/C(=C/c1ccc(Cl)cc1)NC(=O)c1ccccc1 [CBK300484] | 86.5
32 | CCc1cccc(NC(=O)c2cnc(-c3ccc(Cl)cc3)c(-c3ccc(OC)nc3)c2)n1 [CBK036671] | 93.7
33 | CC(C)C(=O)Nc1ccc2nc(-c3ccoc3)c(-c3ccoc3)nc2c1 [CBK286304] | 96.9
34 | c1cnn(CC2CCCN2c2ncnc3sccc23)c1 (centres unmarked) [CBK304968] | 92.5
35 | O=C(NCc1cccs1)c1ccc2c(=O)n3c(nc2c1)CCN(Cc1ccccc1)CC3 [CBK286448] | 100
36 | COC(=O)C(C)CN1CC2CCC(CC2)C1 (centres unmarked) [CBK022785C] | 106
37 | O=C(NCc1ccccn1)Nc1ccc2c(c1)OCO2 [CBK267014] | 97.1
38 | COc1ccc(OCc2nnn[nH]2)cc1 [CBK270000] | 89.9
39 | Cc1cc(NC(=O)CN2CC(C(=O)N3CCN(c4ccccc4)CC3)C2)no1 [CBK285665] | 112
40 | CC(=O)Nc1cccc(CN(CCCO)c2ccccc2)c1 [CBK304833] | 97.1
41 | CCc1nc2ccc(C(=O)N(C)Cc3ccco3)cn2c1N(C)Cc1cccs1 [CBK145552] | 98.5
42 | Cc1cc2cc(CNc3cc(-c4ccccc4)ccc3O)c(=O)[nH]c2cc1C [CBK286164] | 82.7
43 | N#Cc1ccsc1NS(=O)(=O)c1ccc(Cl)c(Cl)c1 [CBK034735] | 95
44 | Cc1nc2c(c(=O)[nH]1)CCN(Cc1ccc(Cl)c(Cl)c1)C2 [CBK283969] | 81.6
45 | C=CCN(c1ccccc1)S(=O)(=O)c1ccc(C(C)(C)CC)cc1 [CBK200036] | 95.7
46 | CCCc1cc(C(=O)NC(c2ccccc2)c2cccnc2)[nH]n1 (centres unmarked) [CBK282462] | 93.8

Row | SMILES | viability at 28.5 h, 10 µM [%]
47 | c1ccc(Cn2cc(-c3nccnc3OCc3ccccn3)cn2)cc1 [CBK107088] | 98.9
48 | CCc1nc2cc(NC(=O)CCCn3ccnc3C)ccc2n1CC [CBK281609] | 101
49 | O=C(CSc1ncn(-c2ccccc2)n1)Nc1ccc(F)c(Cl)c1 [CBK267313] | 94.4
50 | Cc1cc(Oc2ccccc2)nc(Oc2ccc(OCC(N)=O)nn2)n1 [CBK266687] | 98.5
51 | Cc1csc(C(Cc2ccsc2)NC(=O)CN2CCCC2=O)n1 (centres unmarked) [CBK285046] | 81.9
52 | O=C(Cn1nnc2ccccc21)N/N=C\c1cccc(Cl)c1Cl [CBK262931] | 92.4
53 | NC(=O)CN1CC(O)CC1=O (centres unmarked) [CBK011649] | 86.1
54 | Cc1cc(C)c2cc(CN(CCO)Cc3nnnn3CC3CCCO3)c(=O)[nH]c2c1 (centres unmarked) [CBK108944] | 80
55 | Cc1cccnc1C(NC(=O)C1CCN(S(=O)(=O)c2cccs2)CC1)c1cccs1 (centres unmarked) [CBK060147] | 111
56 | COCC(C)NC(=O)Cn1c(-c2ccc(F)cc2)cc2cccnc21 (centres unmarked) [CBK284863] | 113
57 | CCCS(=O)(=O)Nc1ccc(=O)n2c1[C@@H]1C[C@@H](CN(C(=O)c3ccc(OC)cc3)C1)C2 [CBK288711] | 78.3
58 | CCOc1ccc(-n2c(C)cc(C(=O)NS(=O)(=O)c3ccc(C)cc3)c2C)cc1 [CBK296084] | 90.1
59 | COc1ccc([C@@]23CC[C@@H](NC(=O)Nc4cc(F)c(F)c(F)c4)C[C@@H]2N(C)CC3)c(F)c1OC [CBK073909T] | 90.6
60 | CCOC(=O)c1c(CN2CCCC2)nc2c3ccccc3ccn12 [CBK267521C] | 107
61 | CC(=O)c1c(C)oc(C)c1C(C)=O [CBK012535] | 88.2
62 | COc1ccc(CCNC2CCN(Cc3ccccc3)CC2c2ccccc2)cc1OC (centres unmarked) [CBK286166] | 92.8
63 | c1ccc(Nc2nc(-c3cccs3)cn3ccnc23)cc1 [CBK066513] | 83.7
64 | CCOc1cc(/C=N/NC(=O)CSc2nc(C)cc(C)n2)ccc1O [CBK262405] | 96.1
65 | Cc1noc(C)c1C(=O)N1CCCCCC1c1nn(C)cc1Cl (centres unmarked) [CBK285106] | 101
66 | O=C(O)Cc1ccc(NC(=O)C2Cc3ccccc3C(=O)O2)cc1 (centres unmarked) [CBK269406] | 85.1
67 | O=c1[nH]c(=O)c2cc(S(=O)(=O)NC3(c4ccccc4)CCCC3)ccc2[nH]1 [CBK286378] | 110
68 | CC(=O)Oc1cc(Cl)ccc1C(=O)Nc1nnc(C(F)(F)F)s1 [CBK017569] | 84
69 | CN(C)C(=O)C1(Cc2ccc(-c3cccs3)cc2)CCN(C(=O)Cc2ccccc2)CC1 [CBK285784] | 93.2

Row | SMILES | viability at 28.5 h, 10 µM [%]
70 | Cc1nnc(CS(=O)(=O)Cc2csc(C(C)C)n2)n1C1CC1 [CBK304106] | 101
71 | COc1ccc(C(N2CCOCC2)N2CCOCC2)cc1 [CBK261002] | 102
72 | COc1ccc(C)cc1S(=O)(=O)n1ccc2c(CN3CCC(N)CC3)cccc21 [CBK113312T] | 78.6
73 | O=C(CN1CCOCC1)N/N=C/c1ccncc1 [CBK019949] | 83.8
74 | CC1CCCN(Cc2ccccc2[N+](=O)[O-])C1 (centres unmarked) [CBK261862] | 102
75 | O=C(O)c1c[nH]cn1 [CBK260978G] | 97
76 | CCn1cc(NS(=O)(=O)c2ccc(N3CCCC3=O)cc2)cn1 [CBK305922] | 85.3
77 | COc1ccc(NC(=O)N2CCCCC2c2cccnc2)cc1 (centres unmarked) [CBK293947] | 102
78 | CCCCC[C@H](O)CCC1[C@H](O)C[C@@H]2Cc3c(cccc3OCC(=O)O)C[C@H]12 (some centres unmarked) [CBK011575] | 98.3
79 | CC(=O)c1cccc(NC(=O)CCCn2cc([N+](=O)[O-])cn2)c1 [CBK268911] | 82.8
80 | Cc1ccc(CN2C(=O)CC(Sc3ncccc3C(=O)O)C2=O)cc1 (centres unmarked) [CBK270006] | 91.2
81 | COc1cccc(CN2C(=O)COc3ccc(C(=O)c4cccs4)cc32)c1 [CBK286412] | 96.1
82 | C[C@H](NC(=O)N1CCN(C(=O)CCCc2c[nH]c3ccccc23)CC1)C(=O)O [CBK286749] | 88
83 | O=C(NC(NCc1ccco1)C(Cl)(Cl)Cl)c1ccc(Br)cc1 (centres unmarked) [CBK262174] | 89
84 | CCNC(=S)NC(=Nc1nc(C)cc(C)n1)NCc1cccnc1 [CBK267212] | 97.2
85 | CCC(Sc1nnc2c(n1)[nH]c1ccccc12)C(=O)Nc1sc2c(c1C#N)CCCC2 (centres unmarked) [CBK263917] | 80.3
86 | CC(C)(C)NCC(O)COc1cccc2c3c(oc12)CCCC3 (centres unmarked) [CBK008871C] | 90.2
87 | Cc1ccc(C(=O)N2CCN(Cc3cc(=O)n4ccsc4n3)CC2)cn1 [CBK305700] | 89.4
88 | CC1(C)C[C@H](NC(=O)c2ccccc2)[C@@]2(CCC(=O)NC3CC3)CC[C@](C)(O)C[C@@H]12 [CBK289045] | 92.6
89 | COc1ccc(-c2nn(CN3CCC(C(N)=O)CC3)c(=S)n2-c2ccccc2)cc1OC [CBK264299] | 91.8

Reference: PMC12040169 (PLOS Biology, 2025)
